Test results taken from paper PMC7559934, “Characterization of Resveratrol, Oxyresveratrol, Piceatannol and Roflumilast as Modulators of Phosphodiesterase Activity. Study of Yeast Lifespan” (Pharmaceuticals, 2020).

Experiments:
[1] = molecular target: T1, yPDE2 (high-affinity phosphodiesterase type 2) (Saccharomyces cerevisiae, UniProt P06776); assay: HPLC-UV assay of cAMP hydrolysis; Lineweaver-Burk and Km app/Km plot at several inhibitor concentrations; assay type: biochemical; settings: read-out: Inhibitors
T1 construct: gene PDE2
T1 sequence (P06776 1-526): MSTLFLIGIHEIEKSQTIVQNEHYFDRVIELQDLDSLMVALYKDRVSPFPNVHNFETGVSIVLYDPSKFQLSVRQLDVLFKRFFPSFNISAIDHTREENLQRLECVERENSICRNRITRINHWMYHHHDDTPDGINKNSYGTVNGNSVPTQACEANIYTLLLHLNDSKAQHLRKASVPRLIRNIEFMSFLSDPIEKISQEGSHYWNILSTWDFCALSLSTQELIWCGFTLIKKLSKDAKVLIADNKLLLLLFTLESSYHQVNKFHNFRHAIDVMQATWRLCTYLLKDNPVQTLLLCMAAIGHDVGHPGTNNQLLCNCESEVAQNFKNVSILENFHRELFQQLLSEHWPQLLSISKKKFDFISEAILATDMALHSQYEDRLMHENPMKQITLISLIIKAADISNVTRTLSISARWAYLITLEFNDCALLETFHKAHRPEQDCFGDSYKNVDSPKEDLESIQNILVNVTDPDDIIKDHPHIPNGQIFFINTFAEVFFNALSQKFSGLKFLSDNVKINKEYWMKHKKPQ

[2] = molecular target: T1, yPDE2 (high-affinity phosphodiesterase type 2); assay: HPLC-UV assay of cAMP hydrolysis; Ki converted from I50 (competitive equation); assay type: biochemical; settings: read-out: Inhibitors

Compound Oc1ccc(/C=C/c2cc(O)cc(O)c2)cc1 [resveratrol] has a Ki [1] of 63 ± 3 µM.
With Oc1cc(O)cc(/C=C/c2ccc(O)cc2O)c1 [oxyresveratrol] the Ki [2] was 46 ± 4 µM.
Work on Oc1cc(O)cc(/C=C/c2ccc(O)c(O)c2)c1 [piceatannol] yielded a Ki [2] of 50 ± 5 µM.
Compound O=C(Nc1c(Cl)cncc1Cl)c1ccc(OC(F)F)c(OCC2CC2)c1 [roflumilast] has a Ki [2] of 0.3 ± 0.02 µM.
